Results reported in BindingDB's records for doi:10.1016/j.bmcl.2007.07.011 (Bristol Myers Squibb, 2007).
pIC50: −log10 of the molar value.

Target: T1, Polyunsaturated fatty acid lipoxygenase ALOX15 (Oryctolagus cuniculus, UniProt P12530)
T1 sequence (P12530 whole entry): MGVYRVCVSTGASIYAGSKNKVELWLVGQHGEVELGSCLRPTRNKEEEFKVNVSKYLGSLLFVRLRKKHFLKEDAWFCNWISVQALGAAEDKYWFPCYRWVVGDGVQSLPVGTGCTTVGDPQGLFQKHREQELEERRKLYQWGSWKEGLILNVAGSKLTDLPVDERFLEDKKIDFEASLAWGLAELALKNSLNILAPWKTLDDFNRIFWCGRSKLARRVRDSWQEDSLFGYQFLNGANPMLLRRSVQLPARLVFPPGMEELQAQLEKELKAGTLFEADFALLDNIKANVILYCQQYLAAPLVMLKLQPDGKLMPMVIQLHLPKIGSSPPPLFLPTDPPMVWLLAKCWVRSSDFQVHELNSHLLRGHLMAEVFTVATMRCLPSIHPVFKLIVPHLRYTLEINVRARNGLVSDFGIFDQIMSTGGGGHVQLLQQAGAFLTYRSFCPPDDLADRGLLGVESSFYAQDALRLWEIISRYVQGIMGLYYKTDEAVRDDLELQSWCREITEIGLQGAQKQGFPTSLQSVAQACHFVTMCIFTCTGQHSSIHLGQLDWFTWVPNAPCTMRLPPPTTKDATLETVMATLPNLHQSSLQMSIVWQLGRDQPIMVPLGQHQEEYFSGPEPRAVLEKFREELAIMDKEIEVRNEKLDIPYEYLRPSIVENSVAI
Test: Enzyme Inhibition Assay
Protocol: The inhibitory activity of the compounds against purified 15-LO enzyme was determined using a standard colorimetric assay in which the lipid hydroperoxide product (13-hydroperoxyoctadecadienoic acid) oxidizes Fe2+. The Fe3+ forms a chromophore with xylenol orange that absorbs strongly at 560 nm.

Row | pIC50 | SMILES
1 | 6.68 | CCCCCc1ccc(S(=O)(=O)NCCc2nc(-c3ccc(Cl)cc3)[nH]c2-c2ccc(OC)cc2)cc1 [N-{2-[2-(4-chlorophenyl)-5-(4-methoxyphenyl)-1H-imidazol-4-yl]ethyl}-4-pentylbenzene-1-sulfonamide]
2 | 7.96 | COc1ccc(-c2nc(-c3cccs3)[nH]c2CCNS(=O)(=O)N(C)[C@@H]2CCN(c3ccc(Cl)c(Cl)c3)C2)cc1 [{[(3R)-1-(3,4-dichlorophenyl)pyrrolidin-3-yl](methyl)sulfamoyl}({2-[5-(4-methoxyphenyl)-2-(thiophen-2-yl)-1H-imidazol-4-yl]ethyl})amine]
